One series has as its system Aspergillus flavus. Kind of series: In vitro antifungal activity, MIC by broth dilution. In kind it is cell-based. The note with it: fungi. Background: Dilution methods test growth across graded concentrations, often in twofold steps.
For series [1], the system named is Salmonella typhimurium 14028. In words: In vitro antibacterial activity, MIC by broth dilution. In kind it is cell-based. The settings on record: Salmonella enterica, Gram −ve bacteria, read-out: MIC S. typhimurium.
Another series concerns Candida tropicals 750. Kind of series: In vitro antifungal activity, MIC by broth dilution. The note with it: yeast, read-out: MIC C. tropicals. Type of series: cell-based.
Series [2] deals with all the tested yeasts and fungi strains. In words: Antifungal MIC, range over the panel. Type of series: cell-based.
The subject of series [3] is hepatocellular carcinoma (HepG2) cells. In words: Cytotoxicity, MTT assay. In kind it is cell-based. The note with it: Homo sapiens, read-out: Cytotoxic activity IC50 HepG2. On the technique in general: Formazan colour is commonly taken as a measure of viable cells.
In another series the test system is Bacillus cereus 33018. Kind of series: In vitro antibacterial activity, MIC by broth dilution. In kind it is cell-based. The settings on record: Gram +ve bacteria, read-out: MIC B. cereus.
Series [4] deals with Aspergillus niger EM77 (KF774181). In words: In vitro antifungal activity, MIC by broth dilution. The settings on record: fungi. In kind it is cell-based.
In series [5] the test system is Staphylococcus aureus 25923. In words: In vitro antibacterial activity, MIC by broth dilution. Type of series: cell-based. The settings on record: Gram +ve bacteria, read-out: MIC S. aureus.
Another series has as its system Bacillus subtilis 6633. Described as above. In kind it is cell-based. The note with it: Gram +ve bacteria, read-out: MIC B. subtilis.
For another series, the system named is Escherichia coli 8739. The description is as above. In kind it is cell-based. The settings on record: Gram −ve bacteria.
For series [6], the system named is Saccharomycese cerevisiae. In words: In vitro antifungal activity, MIC by broth dilution. In kind it is cell-based. The settings on record: Saccharomyces cerevisiae, yeast, read-out: MIC S. cerevisiae.
A further series has as its system Candida albicans 10231. The description is as above. In kind it is cell-based. The settings on record: yeast, read-out: MIC C. albicans.
The test system of series [7] is breast cancer (MCF-7) cells. Kind of series: Cytotoxicity, MTT assay. The settings on record: read-out: Cytotoxic activity IC50 MCF7. Type of series: cell-based, human.
The target in a further series is EGFR kinase (Homo sapiens, UniProt P00533). Kind of series: In vitro EGFR kinase inhibitory assay (Kinase-Glo MAX kit). The note with it: EGFR IC50, EGFR kinase assay kit, triplicate, ± SD.
EGFR kinase, sequence (P00533 25-1210): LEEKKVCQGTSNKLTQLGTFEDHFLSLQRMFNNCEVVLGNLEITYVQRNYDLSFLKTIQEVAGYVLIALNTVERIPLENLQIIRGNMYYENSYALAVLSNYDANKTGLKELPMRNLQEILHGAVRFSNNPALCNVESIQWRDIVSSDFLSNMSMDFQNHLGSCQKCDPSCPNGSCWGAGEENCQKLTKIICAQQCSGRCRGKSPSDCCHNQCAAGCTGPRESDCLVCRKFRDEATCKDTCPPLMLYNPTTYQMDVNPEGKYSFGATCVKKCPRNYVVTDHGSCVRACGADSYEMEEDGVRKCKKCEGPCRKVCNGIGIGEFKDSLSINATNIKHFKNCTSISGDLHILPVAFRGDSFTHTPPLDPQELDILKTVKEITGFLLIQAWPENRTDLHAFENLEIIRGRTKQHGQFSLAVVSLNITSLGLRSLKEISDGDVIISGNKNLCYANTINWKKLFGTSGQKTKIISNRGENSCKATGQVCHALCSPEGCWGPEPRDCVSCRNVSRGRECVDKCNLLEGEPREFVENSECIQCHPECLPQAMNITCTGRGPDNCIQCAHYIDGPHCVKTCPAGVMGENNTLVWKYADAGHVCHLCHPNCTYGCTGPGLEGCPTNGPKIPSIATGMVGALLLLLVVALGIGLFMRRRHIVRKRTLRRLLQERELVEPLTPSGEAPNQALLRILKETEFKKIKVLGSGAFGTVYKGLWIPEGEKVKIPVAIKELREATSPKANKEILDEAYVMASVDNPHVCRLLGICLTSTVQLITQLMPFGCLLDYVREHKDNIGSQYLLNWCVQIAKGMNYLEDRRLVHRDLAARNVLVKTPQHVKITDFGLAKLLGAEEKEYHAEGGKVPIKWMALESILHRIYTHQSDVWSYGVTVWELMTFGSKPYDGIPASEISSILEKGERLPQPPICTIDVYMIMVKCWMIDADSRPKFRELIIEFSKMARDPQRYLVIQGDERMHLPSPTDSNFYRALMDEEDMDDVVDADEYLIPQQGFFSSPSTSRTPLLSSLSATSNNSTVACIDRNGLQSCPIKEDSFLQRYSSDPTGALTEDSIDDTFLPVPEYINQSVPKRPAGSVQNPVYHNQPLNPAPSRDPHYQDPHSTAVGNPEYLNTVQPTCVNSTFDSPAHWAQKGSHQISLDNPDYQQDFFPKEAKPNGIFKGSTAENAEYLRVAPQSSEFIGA
Series [8] in a line: Cytotoxicity against normal cells, MTT assay. The settings on record: human, WISH normal cells.
Text: The cytotoxicity was estimated as IC50 in μM for the tested compounds and the reference drug doxorubicin, and are listed in Table 3.
In series [9] the test system is HepG2 and MCF-7 cancer cell lines. In words: Cytotoxicity, MTT assay, range over both cancer cell lines. The settings on record: for IC50: Homo sapiens, range over HepG2 and MCF-7, read-out: IC50 range, cytotoxic activity against both cell lines. In kind it is cell-based, human.
In the next series the test system is five bacterial strains. Kind of series: Antibacterial MIC, range over the panel. Type of series: cell-based.
Series [10] concerns five bacterial and five fungal strains. In words: Antimicrobial MIC, range over bacterial and fungal strains. Type of series: cell-based. The settings on record: range over bacterial and fungal strains.

The source of these data is publication PMC8839448, “Novel Pyridothienopyrimidine Derivatives: Design, Synthesis and Biological Evaluation as Antimicrobial and Anticancer Agents” (Molecules, 2022).

SMILES strings stand for the structures. Values after ≈ are worked out from the molar mass of the structure shown. Read-outs that look alike come from different tables or passages of the source.

Experimental for EGFR kinase: The assay kit is designed to measure EGFR Kinase activity for screening applications using Kinase-Glo® MAX as a detection reagent. The luminescence was measured using a microplate reader (Infinite M200 microplate reader, Tecan, Männedorf, Switzerland) [54]. All assays were performed in triplicate and the relative inhibition (%) of inhibitors was then calculated via comparison with the control with no inhibitor.
In vitro EGFR kinase assay
The assay Kit is designed to measure EGFR Kinase
activity for screening applications using Kinase-Glo® MAX as a detection reagent
using Kinase-Glo® MAX as a detection reagent. Thaw 5x Kinase Buffer 1: ATP and
PTK substrate Poly (Glu:Tyr 4:1) (10 mg/ml) kinase was provided. Then the master
mixture was prepared: N wells x (6 μl 5x Kinase Buffer 1 + 1 µl ATP (500 µM) + 1
µl PTK substrate Poly (Glu:Tyr 4:1) (10 mg/ml)+ 17 μl water) and 25 μl of the
mixture was added to every well. The tested compounds were dissolved in DMSO,
well labeled as “Positive Control", 5 μl of the same solution of the reference drug
erlotinib and “Blank”, 5 μl of the same solution without inhibitor (Inhibitor buffer).
ml of 1x Kinase Buffer 1) was prepared by mixing 600 µl of 5x Kinase Buffer 1 with
The reaction initiated by adding 20 µl of diluted EGFR enzyme to the wells designated “Positive Control” and "Test Inhibitor Control". Incubate at 30°C for 40
minutes. Thaw Kinase-G lo Max reagent. After the 40 minute reaction, 50 µl of
Kinase-Glo Max reagent was added to each well. The plate was covered with
aluminum foil and incubate at room temperature for 15 minutes. Then the
luminescence was measured using the microplate reader (Infinite M200 microplate
reader, Tecan, Männedorf, Switzerland). All assays were performed in triplicate. The
relative inhibition (%) of inhibitors were then calculated compared to the control with
no inhibitor. Then the IC50 values and their standard deviation (SD) for the tested
compounds and the reference drug were determined in (nM).

Molecule `Cc1ccc(-c2cc(-c3ccccc3)nc3sc4c(c23)NC2(CCCC2)NC4=O)cc1` [Compound 6b, 7′-Phenyl-9′-(p-tolyl)-1′H-spiro[cyclopentane-1,2′-pyrido[3′,2′:4,5]thieno[3,2-d]pyrimidin]-4′(3′H)-one] displayed a melting point of 210 °C. The molecule further gave an MIC in the series on Aspergillus flavus of 16 mg/L (≈ 37.6 µM). In addition, the MIC in series [1] turned out to be 16 mg/L (≈ 37.6 µM). The MIC with Candida tropicals 750 is 8 mg/L (≈ 18.8 µM). In addition, the “MIC range against the tested yeasts and fungi strains” value in series [2] is 4 to 16 mg/L. The IC50 in series [3] was determined as 2.75 ± 0.13 µM. The MIC in the series with Bacillus cereus 33018 was 16 mg/L (≈ 37.6 µM). The molecule also came in with an MIC in series [4] of 8 mg/L (≈ 18.8 µM). The MIC in series [5] amounted to 4 mg/L (≈ 9.4 µM). Further, the MIC with Bacillus subtilis 6633 worked out at 8 mg/L (≈ 18.8 µM). In the series on Escherichia coli 8739, the MIC was determined as 8 mg/L (≈ 18.8 µM). For the same molecule, in series [6], the MIC stood at 8 mg/L (≈ 18.8 µM). Also, in the series with Candida albicans 10231, the MIC was 8 mg/L (≈ 18.8 µM). For the same molecule, the 50% inhibitory concentration (IC50) in series [7] (Homo sapiens, MCF7, MCF7 cells) was 9.89 ± 0.55 µM. Further, the IC50 in series [7] (MCF7 cells) turned out to be 9.89 ± 0.55 µM. Besides, the IC50 at EGFR kinase came out at 0.05319 ± 0.00046 µM. In [8], this molecule showed an IC50 of 395 ± 10.2 µM.
The molecule `Cc1cc(C)c2c3c(sc2n1)C(=O)NC1(CCCCC1)N3` [Compound 6c, 7′,9′-Dimethyl-1′H-spiro[cyclohexane-1,2′-pyrido[3′,2′:4,5]thieno[3,2-d]pyrimidin]-4′(3′H)-one] showed a melting point of 290 to 291 °C. 4 mg/L (≈ 13.3 µM) was the least that counted as inhibitory against Aspergillus flavus (MIC). The MIC in [1] amounted to 16 mg/L (≈ 53.1 µM). In addition, the MIC in the series with Candida tropicals 750 was found to be 4 mg/L (≈ 13.3 µM). In addition, the “MIC range against the tested yeasts and fungi strains” value in series [2] was in the range of 4 to 16 mg/L. Moreover, the IC50 in series [3] was 12.1 ± 0.33 µM. The minimal inhibitory concentration (MIC) with Bacillus cereus 33018 is 8 mg/L (≈ 26.5 µM). The molecule further yielded an MIC in [4] of 8 mg/L (≈ 26.5 µM). Moreover, the IC50 in series [9] lay within 12.1 to 77.4 µM. Further, the MIC in [5] was 4 mg/L (≈ 13.3 µM). For the same molecule, the MIC in the series with Bacillus subtilis 6633 amounted to 4 mg/L (≈ 13.3 µM). The molecule also displayed an MIC against Escherichia coli 8739 of 8 mg/L (≈ 26.5 µM). Further, in series [6], the MIC came out at 16 mg/L (≈ 53.1 µM). The MIC with Candida albicans 10231 came to 16 mg/L (≈ 53.1 µM). In series [7] (Homo sapiens, MCF7, MCF7 cells), the IC50 turned out to be 22.2 ± 0.67 µM.
For `Cc1ccc(-c2cc(-c3ccccc3)nc3sc4c(c23)NC2(CCCC2)N=C4SCC(N)=O)cc1` [Compound 8b, 2-((7′-Phenyl-9′-(p-tolyl)-1′H-spiro[cyclopentane-1,2′-pyrido[3′,2′:4,5]thieno[3,2-d]pyrimidin]-4′-yl)sulfanyl)acetamide], the melting point fell in the range of 148 to 149 °C. In the series on Aspergillus flavus, this molecule yielded an MIC of 8 mg/L (≈ 16 µM). In addition, the MIC in series [1] stood at 16 mg/L (≈ 32.1 µM). The MIC with Candida tropicals 750 was 16 mg/L (≈ 32.1 µM). Further, in series [2], the “MIC range against the tested yeasts and fungi strains” value was in the range of 4 to 16 mg/L. Also, the IC50 in series [3] was determined as 2.79 ± 0.08 µM. For the same molecule, the MIC in the series on Bacillus cereus 33018 stood at 16 mg/L (≈ 32.1 µM). In [4], the MIC stood at 8 mg/L (≈ 16 µM). In series [5], the MIC was found to be 4 mg/L (≈ 8.02 µM). Moreover, the MIC in the series on Bacillus subtilis 6633 is 8 mg/L (≈ 16 µM). The molecule also had an MIC with Escherichia coli 8739 of 8 mg/L (≈ 16 µM). Besides, the MIC in series [6] amounted to 16 mg/L (≈ 32.1 µM). Moreover, the MIC in the series with Candida albicans 10231 was 8 mg/L (≈ 16 µM). Further, the IC50 in series [7] (Homo sapiens, MCF7, MCF7 cells) turned out to be 13.5 ± 0.76 µM. For the same molecule, the IC50 at EGFR kinase was determined as 0.03844 ± 0.00025 µM. Further, the IC50 in series [8] was 401 ± 17.3 µM.
In turn, `Cc1cc(C)c2c3c(sc2n1)C(SCC1CO1)=NC1(CCCCC1)N3` (stereo not drawn) [Compound 9a, 7′,9′-Dimethyl-4′-((oxiran-2-ylmethyl)sulfanyl)-1′H-spiro[cyclohexane-1,2′-pyrido[3′,2′:4,5]thieno[3,2-d]pyrimidine]] yielded a melting point of 155 °C. In addition, the “MIC range against the tested bacterial strains” value against five bacterial strains is 8 to 32 mg/L. In the series on Aspergillus flavus, this molecule gave an MIC of 16 mg/L (≈ 42.8 µM). Moreover, in series [1], the MIC is 16 mg/L (≈ 42.8 µM). Moreover, the minimal inhibitory concentration (MIC) in the series on Candida tropicals 750 was found to be 32 mg/L (≈ 85.7 µM). The IC50 in [3] came out at 4.88 ± 0.65 µM. In the series on Bacillus cereus 33018, the MIC was 8 mg/L (≈ 21.4 µM). Moreover, in series [4], 64 mg/L (≈ 171 µM) was the least that counted as inhibitory (MIC). Also, in series [5], the MIC stood at 16 mg/L (≈ 42.8 µM). For the same molecule, the MIC with Bacillus subtilis 6633 was found to be 32 mg/L (≈ 85.7 µM). This molecule also yielded an MIC with Escherichia coli 8739 of 32 mg/L (≈ 85.7 µM). In addition, in [6], the minimal inhibitory concentration (MIC) turned out to be 32 mg/L (≈ 85.7 µM). In the series on Candida albicans 10231, the MIC turned out to be 16 mg/L (≈ 42.8 µM). Besides, the IC50 in [7] (Homo sapiens, MCF7, MCF7 cells) is 23.6 ± 1.24 µM.
Turning to `Cc1ccc(-c2cc(-c3ccccc3)nc3sc4c(c23)NC2(CCCC2)N=C4SCC2CO2)cc1` (stereo not drawn) [Compound 9b, 4′-((Oxiran-2-ylmethyl)sulfanyl)-7′-phenyl-9′-(p-tolyl)-1′H-spiro[cyclopentane-1,2′-pyrido[3′,2′:4,5]thieno[3,2-d]pyrimidine]], the melting point was found to be 120 °C. In the series on Aspergillus flavus, this molecule registered an MIC of 8 mg/L (≈ 16.1 µM). Further, the MIC in series [1] worked out at 16 mg/L (≈ 32.1 µM). Besides, in the series with Candida tropicals 750, the MIC came to 4 mg/L (≈ 8.04 µM). In [2], the “MIC range against the tested yeasts and fungi strains” value was 4 to 16 mg/L. Moreover, the IC50 in [3] worked out at 1.17 ± 0.09 µM. For the same molecule, the MIC in the series on Bacillus cereus 33018 amounted to 8 mg/L (≈ 16.1 µM). In series [4], this molecule yielded an MIC of 8 mg/L (≈ 16.1 µM). Further, the “Fold higher growth inhibition than doxorubicin” value in series [9] (HepG2 and MCF-7, relative to doxorubicin) is reported as 2–3 fold. Besides, the IC50 in series [9] was in the range of 1.17 to 2.79 µM. For the same molecule, in series [5], the MIC amounted to 4 mg/L (≈ 8.04 µM). In addition, the MIC with Bacillus subtilis 6633 amounted to 4 mg/L (≈ 8.04 µM). The “MIC range, antibacterial and antifungal” value in [10] was 4 to 16 mg/L. For the same molecule, in the series with Escherichia coli 8739, the MIC is 4 mg/L (≈ 8.04 µM). For the same molecule, the MIC in series [6] came to 8 mg/L (≈ 16.1 µM). In addition, the MIC in the series with Candida albicans 10231 was 4 mg/L (≈ 8.04 µM). Further, the concentration for half-maximal inhibition (IC50) in series [7] (Homo sapiens, MCF7, MCF7 cells) came to 1.52 ± 0.08 µM. On EGFR kinase, this molecule had an IC50 of 0.00727 ± 0.00011 µM. In addition, in series [8], the midpoint of inhibition, the IC50, lay at 418 ± 14.1 µM.
In the case of `COc1cccc2c1C(=O)c1c(O)c3c(c(O)c1C2=O)C[C@@](O)(C(=O)CO)C[C@@H]3O[C@H]1C[C@H](N)[C@H](O)[C@H](C)O1` [Doxorubicin, doxorubicin, reference compound], the IC50 was 2.85 ± 0.21 µM in [3]; 3.58 ± 0.33 µM in [7] (Homo sapiens, MCF7, MCF7 cells); 432 ± 19.3 µM in series [8].

As a reminder, the MIC is the smallest concentration in the dilution series that meets the test's criterion for growth inhibition. By IC50 is commonly meant the point on the concentration scale where inhibition reaches its midpoint. One may read the melting point as the temperature of the solid-liquid transition.
